Key:
[1] = target: T1, MAP kinase-activated protein kinase 5 (Homo sapiens) (UniProt Q8IW41); details: at 10 µM
T1 sequence (whole entry): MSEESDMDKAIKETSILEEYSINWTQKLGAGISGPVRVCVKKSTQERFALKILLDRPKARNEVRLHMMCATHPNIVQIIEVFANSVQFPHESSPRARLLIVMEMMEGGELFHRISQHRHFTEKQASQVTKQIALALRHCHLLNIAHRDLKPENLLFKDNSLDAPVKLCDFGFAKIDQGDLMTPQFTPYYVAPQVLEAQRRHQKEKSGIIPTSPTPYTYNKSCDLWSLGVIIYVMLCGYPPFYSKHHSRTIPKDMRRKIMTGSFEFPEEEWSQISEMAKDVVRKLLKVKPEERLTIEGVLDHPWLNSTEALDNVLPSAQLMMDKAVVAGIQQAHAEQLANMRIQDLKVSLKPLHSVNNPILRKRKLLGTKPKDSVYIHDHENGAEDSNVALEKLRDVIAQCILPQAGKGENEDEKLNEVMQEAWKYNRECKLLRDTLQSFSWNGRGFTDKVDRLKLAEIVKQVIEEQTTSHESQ

[2] = target: T2, Mitogen-activated protein kinase kinase kinase 19 (Homo sapiens) (UniProt Q56UN5); assay: Selectivity interaction (KinomeScan (DiscoverX)) EUB0000607a MAP3K19; details: at 10 µM
T2 sequence (whole entry): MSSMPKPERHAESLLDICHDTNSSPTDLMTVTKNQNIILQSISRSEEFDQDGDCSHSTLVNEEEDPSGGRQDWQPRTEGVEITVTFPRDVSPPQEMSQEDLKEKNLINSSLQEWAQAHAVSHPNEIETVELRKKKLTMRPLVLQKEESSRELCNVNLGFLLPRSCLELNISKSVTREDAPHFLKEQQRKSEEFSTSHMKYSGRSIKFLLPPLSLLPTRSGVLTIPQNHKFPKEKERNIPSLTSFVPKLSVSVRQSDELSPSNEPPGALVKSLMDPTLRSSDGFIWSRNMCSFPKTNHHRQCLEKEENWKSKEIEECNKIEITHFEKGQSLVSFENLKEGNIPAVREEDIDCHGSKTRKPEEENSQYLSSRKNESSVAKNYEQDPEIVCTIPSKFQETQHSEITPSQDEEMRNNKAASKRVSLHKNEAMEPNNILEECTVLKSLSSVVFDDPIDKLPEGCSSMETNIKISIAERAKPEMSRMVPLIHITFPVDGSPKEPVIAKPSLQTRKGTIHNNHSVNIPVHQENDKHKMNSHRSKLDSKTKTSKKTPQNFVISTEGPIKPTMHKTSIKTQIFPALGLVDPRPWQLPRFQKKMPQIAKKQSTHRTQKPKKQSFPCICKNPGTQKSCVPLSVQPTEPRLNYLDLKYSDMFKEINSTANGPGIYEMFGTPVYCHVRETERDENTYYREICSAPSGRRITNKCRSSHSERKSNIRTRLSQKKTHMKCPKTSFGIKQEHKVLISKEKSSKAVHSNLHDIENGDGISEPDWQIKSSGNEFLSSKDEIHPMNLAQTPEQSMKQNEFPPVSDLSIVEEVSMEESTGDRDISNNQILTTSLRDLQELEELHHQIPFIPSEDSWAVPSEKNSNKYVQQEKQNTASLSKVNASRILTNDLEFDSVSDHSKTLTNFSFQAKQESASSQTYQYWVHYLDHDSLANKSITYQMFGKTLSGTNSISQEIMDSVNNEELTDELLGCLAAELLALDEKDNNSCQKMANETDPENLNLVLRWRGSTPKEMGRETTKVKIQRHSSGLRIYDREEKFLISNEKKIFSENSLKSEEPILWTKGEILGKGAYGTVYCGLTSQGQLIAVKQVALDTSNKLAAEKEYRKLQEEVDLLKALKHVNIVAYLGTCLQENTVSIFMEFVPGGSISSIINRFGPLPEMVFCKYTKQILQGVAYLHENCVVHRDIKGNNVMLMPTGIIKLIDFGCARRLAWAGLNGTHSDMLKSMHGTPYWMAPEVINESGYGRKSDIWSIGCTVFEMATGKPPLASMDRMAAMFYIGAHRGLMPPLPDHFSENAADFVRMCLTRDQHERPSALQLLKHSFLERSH

Cc1cc([C@@H](C)Nc2ccccc2C(=O)O)c2nc(N3CCOCC3)cc(=O)n2c1 [AZD-6482]
% of control [1]: 100%

CNC(=O)Nc1ccc(-c2nc(N3CC4CCC(C3)O4)c3cnn(C4CCC5(CC4)OCCO5)c3n2)cc1
% of control [2]: 100%

From ChEMBL document CHEMBL5465560, “Selectivity Literature for EUbOPEN Chemogenomic Library” (2024)
